Each block holds one compound with its values, some of them ahead of it.
Legend:
human erythrocyte ghosts = assay: Red cell ghost (RCG) uptake; format: in vitro ADME; details: for RCG uptake: technetium complex, human erythrocyte ghosts
Protocol: RCG uptake is determined by incubation of a fixed amount of labelled complex with a range of ghost concentrations. The percentage of labelled complex […] is calculated for each ghost concentration to yield a single uptake figure expressed as %/mg protein.

[1] = Human plasma protein binding of technetium complexes (ultrafiltration); format: in vitro ADME; details: technetium complex, read-out: PPB % bound (converted)
Protocol: Human plasma protein binding was determined by ultrafiltration^(9), such that the percentage of complex bound is an indicator of the affinity of binding.
The plasma protein binding figure obtained for a given compound is highly dependent on the method of determination used^(10). Thus equilibrium dialysis measurement may lead to higher PPB figures than those obtained via ultrafiltration due to longer incubation times. Use of serum rather than plasma may also underestimate the true extent of binding. There are also significant interspecies differences.

[2] = Stability when handled in air; format: physicochemical
[3] = neutral lipophilic technetium complex; cited from earlier work
[4] = tested on: V79-379A Chinese hamster cells; assay: Hypoxic and oxic binding of 99mTc labelled compounds to cells in vitro; format: cell-based; details: 99mTc complex; for Oxic SN (supernatant): air +5% CO2; for Oxic pellet: air +5% CO2, 37° C.; for Oxic pellet / Hypoxic pellet: 10^6 cells per pellet; for Hypoxic SN (supernatant): nitrogen +5% CO2; for Hypoxic pellet: nitrogen +5% CO2, 37° C.
Protocol: V79-379A Chinese hamster cells were harvested from exponential suspension culture and resuspended at 1.1×10^6 cells cm^-3 in Bagle's MEM. 20 cm^3 of cells were transferred to small spinner vessels and gassed with either air +5% CO2 (oxic) or nitrogen +5% CO2 (Hypoxic) at 37° C. After 30 minutes, between 0.5 cm^3 and 1 cm^3 of ^99m Tc labelled compound was added. At timed intervals 1 cm^3 of cell suspension was withdrawn from each flask and chilled on ice in small polystyrene centrifuge tubes. The cells were centrifuged and washed three times in ice-cold medium (Eagle's MEM) to give constant counts in the cell pellet. The pellets were counted in LKB 1282 Compugamma counter. The initial supernatant was diluted 1 in 100 with saline and 1 cm^3 was counted. All samples were counted at the end of the incubation period and counts have been corrected for decay during counting but not for decay during incubation.
Attempts were made to decrease the amount of non-specific binding by incubating the cell samples in a large volume of medium for one hour at 37° C. under oxic conditions.

RCG uptake (human erythrocyte ghosts): 1.1 %/mg protein | fraction unbound [1]: 1
SMILES: CC(=O)NCCCNC(=O)CSCCSC1CCCCO1 (stereo not drawn) [HL60P, N-(3-acetylamino)propyl-2-(tetrahydropyran-2-ylthio)ethylthioacetamide]

SMILES: CC(=O)NCCNC(=O)CSCCS [HL 15D, N-(2-Acetylaminoethyl)-2-mercaptoethylthioacetamide]
tendency to oxidise to the corresponding disulphide [2]: tended to oxidise to the corresponding disulphide if handled in air

fraction unbound [1]: 0.38
SMILES: CC(C)(S)CNCCNCC(C)(C)S [BAT, reference compound]
blood-brain barrier passage [3]: can cross the blood-brain barrier

RCG uptake (human erythrocyte ghosts): 3.6 %/mg protein | fraction unbound [1]: 0.82
SMILES: CC(=O)NCCNC(=O)CCSCCSC1CCCCO1 (stereo not drawn) [HL49, N-(2-acetylaminoethyl)-3-[2-(tetrahydropyran-2-ylthio)ethylthio]propionamide]

RCG uptake (human erythrocyte ghosts): 6.7 %/mg protein | fraction unbound [1]: 0.25
SMILES: CC(=NO)C(C)(C)NCCCNC(C)(C)C(C)=NO [PnAO, reference compound]

SMILES: CC(=O)NCSCC(NCC(O)Cn1ccnc1[N+](=O)[O-])C(=O)NCC(=O)NCCN(C)C (stereo not drawn) [HL11P]
Hypoxic:oxic ratio ([4]; 0.5 hrs): 5.79 | Oxic SN (supernatant) ([4]; 0.5 hrs): 25.1 cpm/ml (10^-7) | Oxic pellet ([4]; 0.5 hrs): 0.42 cpm (×10^-5) | Hypoxic SN (supernatant) ([4]; 0.5 hrs): 22.2 cpm/ml (10^-7) | Hypoxic pellet ([4]; 0.5 hrs): 2.15 cpm (×10^-5) | Hypoxic:oxic ratio ([4]; 1.0 hrs): 2.91 | Oxic SN (supernatant) ([4]; 1.0 hrs): 24.9 cpm/ml (10^-7) | Oxic pellet ([4]; 1.0 hrs): 0.71 cpm (×10^-5) | Hypoxic SN (supernatant) ([4]; 1.0 hrs): 22.3 cpm/ml (10^-7) | Hypoxic pellet ([4]; 1.0 hrs): 1.85 cpm (×10^-5) | Hypoxic:oxic ratio ([4]; 2.0 hrs): 3.86 | Oxic SN (supernatant) ([4]; 2.0 hrs): 25.5 cpm/ml (10^-7) | Oxic pellet ([4]; 2.0 hrs): 0.99 cpm (×10^-5) | Hypoxic SN (supernatant) ([4]; 2.0 hrs): 22.2 cpm/ml (10^-7) | Hypoxic pellet ([4]; 2.0 hrs): 3.33 cpm (×10^-5) | Hypoxic:oxic ratio ([4]; 3.0 hrs): 3.60 | Oxic SN (supernatant) ([4]; 3.0 hrs): 25.6 cpm/ml (10^-7) | Oxic pellet ([4]; 3.0 hrs): 1.18 cpm (×10^-5) | Hypoxic SN (supernatant) ([4]; 3.0 hrs): 22.4 cpm/ml (10^-7) | Hypoxic pellet ([4]; 3.0 hrs): 3.72 cpm (×10^-5) | Hypoxic:oxic ratio ([4]; 4.0 hrs): 5.07 | Oxic SN (supernatant) ([4]; 4.0 hrs): 26.0 cpm/ml (10^-7) | Oxic pellet ([4]; 4.0 hrs): 1.40 cpm (×10^-5) | Hypoxic SN (supernatant) ([4]; 4.0 hrs): 22.8 cpm/ml (10^-7) | Hypoxic pellet ([4]; 4.0 hrs): 6.22 cpm (×10^-5) | Hypoxic:oxic ratio ([4]; 5.0 hrs): 3.26 | Oxic SN (supernatant) ([4]; 5.0 hrs): 25.7 cpm/ml (10^-7) | Oxic pellet ([4]; 5.0 hrs): 1.63 cpm (×10^-5) | Hypoxic SN (supernatant) ([4]; 5.0 hrs): 22.7 cpm/ml (10^-7) | Hypoxic pellet ([4]; 5.0 hrs): 4.70 cpm (×10^-5)

RCG uptake (human erythrocyte ghosts): 1.6 %/mg protein | fraction unbound [1]: 1
SMILES: CC(=O)NCCNC(=O)CSCCSC1CCCCO1 (stereo not drawn) [HL15P, N-(2-Acetylaminoethyl)-2-(tetrahydropyran-2-ylthio)ethylthioacetamide]

RCG uptake (in words) (human erythrocyte ghosts; 99mTc complex): excluded from the ghosts
SMILES: O=C([O-])CN(CCN(CC(=O)[O-])CC(=O)[O-])CCN(CC(=O)[O-])CC(=O)[O-].[99Tc+4] [^99m Tc-DTPA, reference compound]
